Series [1] deals with PSAC. In words: Transport inhibition assay, osmotic lysis of infected cells in sorbitol (Table 5). Type of series: cell-based, P. falciparum. Particulars: 37° C.; for IC50: read-out: Transport inhibition K0.5.
The subject of series [2] is P. falciparum. In words: microbe, parasite or virus in culture. Type of series: cell-based. Particulars: for IC50: Plasmodium falciparum, 72 h; for IC50 ratio: RPMI growth IC50 / PLM growth IC50.
For series [3], the system named is PSAC. The series can be described thus: K0.5 for PSAC block, light-scattering osmotic lysis assay in sorbitol (Example 1). Particulars: for K0.5 for PSAC block: concentration producing 50% block of PSAC-mediated solute uptake; for IC50: read-out: K0.5 for PSAC block, concentration producing 50% block of PSAC-mediated solute uptake. Type of series: cell-based, P. falciparum. The source says:
The chemical inhibitors included:
In this assay, increases in transmittance (% T, measured at 700 nm) correlated directly to lysis of infected RBCs and were plotted in arbitrary units. Uninfected RBCs lacked PSAC activity and had undetectably low sorbitol permeability.

For series [4], the system named is P. falciparum. The series can be described thus: In vitro parasite killing, SYBR Green I fluorescence assay in RPMI 1640 or PLM (Example 1). Type of series: cell-based. Particulars: for IC50: Plasmodium falciparum, 72 h; for Ratio (RPMI/PLM): ratio of IC50 RPMI/PLM. As for the experimental part: In vitro parasite killing by PSAC inhibitors was quantified using a SYBR Green I-based fluorescence assay for parasite nucleic acid in 96-well format.
Cultures were maintained for 3 days at 37° C. in 5% 02, 5% CO2 without media change. After this incubation, Sybr Green I was added in 20 mM Tris, 10 mM EDTA, 0.016% saponin, 1.6% triton X100.

Series [5] can be described thus: Mammalian cytotoxicity, MTS viability. Type of series: cell-based, human. Particulars: human, HeLa cells; 72 h, MTS; read-out: HeLa cell CC50. On the procedure:
(§1) Cytotoxicity of PSAC inhibitors was measured with human HeLa cells (ATCC # CLL-2) in 96-well plates at 4000 cells/well. Cultures were incubated with each inhibitor at 37° C. for 72 h in Minimal Essential Medium (Gibco/Invitrogen, Carlsbad, Calif.) supplemented with 10% fetal calf serum. Cell viability was quantified using the vital stain MTS [3-(4,5-dimethylthiazol-2-yl)-5-(3-carboxymethonyphenol)-2-(4-sulfophenyl)-2H-tetrazolium, inner salt], as described (Marshall et al., Growth Regul., 5: 69-84 (1995)). The reported CC50 value is the concentration of an inhibitor that reduces conversion of MTS to formazan by 50%.

Series [6] relates to human HeLa cells. In words: Mammalian cytotoxicity, MTS viability. Type of series: cell-based. On the procedure:
as §1

[7] abbreviates: PSAC-limiting medium (PLM), 3 days, read-out: PLM IC50.
Setting [8] is: RPMI 1640 standard media, 3 days, read-out: RPMI IC50.

Entries after “also recorded” stand apart in the source; their conditions may differ.

On to `O=C1CN(/N=C/c2ccc(-c3ccc([N+](=O)[O-])cc3)o2)C(=O)N1` [dantrolene, reference compound], for which the IC50 in series [1] came to 1200 nM; in series [2] (read-out: PLM growth IC50) it was 3800 nM; in series [2] (read-out: RPMI growth IC50), 42000 nM. In series [2], the IC50 ratio was found to be 18.
On to `OC(c1cc(C(F)(F)F)nc2c(C(F)(F)F)cccc12)C1CCCCN1` (stereo not drawn) [mefloquine], for which the entries for the “K0.5 for PSAC block” value in series [3] and in series [3] (listed as Mefloquine) were “did not inhibit PSAC activity” and “inactive”, respectively. Besides, the IC50 in series [4] (setting [7]) amounted to 33 nM; in series [4] (setting [8]), 22 nM. The “Ratio (RPMI/PLM)” value in series [4] came out at 0.66. Besides, the “Transport inhibition K0.5” value in series [1] was “do not inhibit PSAC-mediated solute uptake; also recorded: inactive”. Moreover, in series [2], the IC50 ratio is given as 0.66.
In the case of `CCN(Cc1ccccc1)C(=O)c1ccc2c(c1)NC(=O)c1ccccc1S2` [(31)], the IC50 was 84 nM in series [1], 410 nM in series [2] (read-out: PLM growth IC50) and 4700 nM in series [2] (read-out: RPMI growth IC50). Also, the IC50 ratio in series [2] amounted to 15. Moreover, in series [5], the CC50 at 72 h is more than 100000 nM. For the same compound, the “specificity (HeLa CC50/parasite PLM IC50)” value in series [6] is more than 240.
`CC1=Nc2ccc(C)cc2C1/C=C1/C(=N)N2N=C(S(=O)(=O)CC(C)C)SC2=NC1=O` (stereo not drawn) [Cpd 50]: the IC50 in series [1] is 81 nM; in series [2] (read-out: PLM growth IC50), 2000 nM; in series [2] (read-out: RPMI growth IC50), more than 30000 nM. Moreover, the IC50 ratio in series [2] is more than 15. For the same compound, the CC50 at 72 h in series [5] is more than 100000 nM. Also, the “specificity (HeLa CC50/parasite PLM IC50)” value in series [6] is more than 50.
Turning to `CCc1nn2c(=O)cc(CSc3nc4ccc(NC(=O)c5cccs5)cc4s3)nc2s1` [Compound of formula (2a)], the IC50 in series [3] was 10 nM; in series [4] (setting [7]) it was 300 nM; in series [4] (setting [8]) it was more than 30000 nM. Moreover, the “Ratio (RPMI/PLM)” value in series [4] is more than 100.
With `NS(=O)(=O)c1cc(C(=O)O)c(NCc2ccco2)cc1Cl` [furosemide, reference compound], the IC50 in series [2] (read-out: PLM growth IC50) is 21000 nM; in series [2] (read-out: RPMI growth IC50) it was more than 200000 nM.
For `O=C1N=C(N2CCCC2)S/C1=C/c1cccc(Cl)c1` [Cpd 80], the IC50 in series [1] turned out to be 44 nM; in series [2] (read-out: PLM growth IC50) it was 170 nM; in series [2] (read-out: RPMI growth IC50) it was 12500 nM. Besides, the IC50 ratio in series [2] came out at 130.
`CCCCN(CC)C(=O)c1cc2cc3ccc(C)cc3nc2o1` [(24)]: the IC50 in series [1] came to 87 nM; in series [2] (read-out: PLM growth IC50) it was 270 nM; in series [2] (read-out: RPMI growth IC50) it was 23000 nM. Also, in series [2], the IC50 ratio is on record as 114. Also, the CC50 at 72 h in series [5] was 30000 nM. The “specificity (HeLa CC50/parasite PLM IC50)” value in series [6] turned out to be 110.
For `CCN(CC)CCCC(C)Nc1ccnc2cc(Cl)ccc12` (stereo not drawn) [chloroquine, reference compound], the “K0.5 for PSAC block” value in series [3] is listed as “did not inhibit PSAC activity”. The IC50 in series [4] (read-out: PLM IC50) was 340 nM; in series [4] (read-out: RPMI IC50) it was 220 nM; in series [2] (read-out: PLM growth IC50), 340 nM; in series [2] (read-out: RPMI growth IC50), 220 nM. Further, the “Transport inhibition K0.5” value in series [1] was “do not inhibit PSAC-mediated solute uptake; also recorded: inactive”.
For the compound `C[C@@H]1CC[C@H]2[C@@H](C)C(=O)O[C@@H]3O[C@@]4(C)CC[C@@H]1[C@]32OO4` [artemisinin], the “K0.5 for PSAC block” value in series [3] is “did not inhibit PSAC activity”; in series [3] (listed as Artemisinin), “inactive”. For the same compound, the IC50 was determined as 26 nM in series [4] (setting [7]) and 18 nM in series [4] (setting [8]). Moreover, the “Ratio (RPMI/PLM)” value in series [4] is reported as 0.66. The “Transport inhibition K0.5” value in series [1] was “do not inhibit PSAC-mediated solute uptake; also recorded: inactive”. Moreover, the IC50 ratio in series [2] is 0.66.
As to `COc1ccc2cc3cc(C(=O)N(C)C4CCCCC4)oc3nc2c1` [(25)], the IC50 in series [1] was 33 nM; in series [2] (read-out: PLM growth IC50), 170 nM; in series [2] (read-out: RPMI growth IC50), 15000 nM. Also, the IC50 ratio in series [2] is 86.
Regarding `Cc1ccc(C)c(N2CCN(S(=O)(=O)c3ccc(-c4ccc(=O)[nH]n4)s3)CC2)c1` [Compound of formula (1a)], the IC50 in series [3] amounted to 3 nM; in series [4] (setting [7]) it was 2.3 nM; in series [4] (setting [8]) it was 1500 nM. The “Ratio (RPMI/PLM)” value in series [4] came out at 800.

A word on the CC50: it is the concentration giving 50% cytotoxicity.

Source of the values: US12059418B2, “Plasmodial surface anion channel inhibitors for the treatment or prevention of malaria” (The United States of America, as represented by the …, priority 2011, dated 2024).
